One assay has as its system HL-1. The experiment in a line: protection of cardiomyocytes from stress damage, SAR follow-up, cell-based, panel, H9c2 and HL-1, H2O2, 2-deoxyglucose, ATP luminescence (AID 651642).
Another assay has as its system H9c2. The assay is described as above.
[1] abbreviates: H9c2/HL-1 cardiomyocyte 2-deoxyglucose damage, mean of runs, with 2-deoxyglucose, mean IC50 across panel.
Where [2] appears, read: H9c2/HL-1 cardiomyocyte 2-deoxyglucose damage, run 1, with 2-deoxyglucose.
[3] abbreviates: H9c2/HL-1 cardiomyocyte 2-deoxyglucose damage, run 2, with 2-deoxyglucose.
Setting [4] is: H9c2/HL-1 cardiomyocyte 2-deoxyglucose damage, run 3, with 2-deoxyglucose.
Where [5] appears, read: H9c2/HL-1 cardiomyocyte 2-deoxyglucose damage, run 4, with 2-deoxyglucose.
Setting [6] is: H9c2/HL-1 cardiomyocyte H2O2 oxidative damage, mean of runs, with H2O2, mean IC50 across panel.
The mark [7] stands for this setting: H9c2/HL-1 cardiomyocyte H2O2 oxidative damage, run 1, with H2O2.
[8] abbreviates: H9c2/HL-1 cardiomyocyte H2O2 oxidative damage, run 2, with H2O2.
The mark [9] stands for this setting: H9c2/HL-1 cardiomyocyte H2O2 oxidative damage, run 3, with H2O2.
Where [10] appears, read: H9c2/HL-1 cardiomyocyte H2O2 oxidative damage, run 4, with H2O2.

The structures appear in SMILES notation.

For orientation: IC50 means the concentration needed to halve the response being measured.

For the molecule `COc1ccc2c(c1OC)C(=O)N1c3ccccc3C(=O)N(Cc3cccc(C)c3)C21` (centres undefined), the half-inhibitory concentration (IC50) in the assay on HL-1 (setting [1]) was 10.6 µM; with HL-1 (setting [2]), 7.52 µM; in the assay on HL-1 (setting [3]), 8.41 µM; with HL-1 (setting [4]) it was 12 µM; with HL-1 (setting [5]), 14.6 µM; in the assay with HL-1 (setting [6]) it was above 79 µM. Moreover, the 50% inhibitory concentration (IC50) with HL-1 (setting [7]), in the assay on HL-1 (setting [8]), in the assay with HL-1 (setting [9]), in the assay on HL-1 (setting [10]), in the assay on H9c2 (setting [1]) and in the assay with H9c2 (setting [2]) was above 79 µM in each case. Moreover, the 50% inhibitory concentration (IC50) with H9c2 (setting [3]) was above 79 µM; in the assay on H9c2 (setting [4]), above 79 µM; in the assay on H9c2 (setting [5]) it was above 79 µM; with H9c2 (setting [7]), 5.63 µM; in the assay with H9c2 (setting [8]) it was 6 µM; in the assay on H9c2 (setting [9]) it was above 79 µM. The molecule also displayed a concentration for half-maximal inhibition (IC50) with H9c2 (setting [10]) above 79 µM.

Take `CCOC(=O)c1cccc(NC(=O)c2cc(-c3cc(OC)c(OC)c(OC)c3)nc3ccc(Br)cc23)c1`: the IC50 with HL-1 (setting [1]), with HL-1 (setting [2]), in the assay with HL-1 (setting [3]), with HL-1 (setting [4]), with HL-1 (setting [5]) and in the assay on HL-1 (setting [7]) was above 79 µM in each case. Moreover, the IC50 is above 79 µM in the assay on HL-1 (setting [8]); above 79 µM in the assay on HL-1 (setting [9]); 4.69 µM with HL-1 (setting [10]); above 79 µM with H9c2 (setting [1]); above 79 µM with H9c2 (setting [2]); above 79 µM with H9c2 (setting [3]). Moreover, the concentration for half-maximal inhibition (IC50) with H9c2 (setting [4]) is above 79 µM; in the assay on H9c2 (setting [5]), above 79 µM; with H9c2 (setting [7]), 2.86 µM; in the assay with H9c2 (setting [8]) it was 3.15 µM; in the assay on H9c2 (setting [9]), above 79 µM; in the assay on H9c2 (setting [10]) it was above 79 µM.

Consider `COc1cc(-c2cc(C(=O)NCC(=O)Nc3ccc(C(C)=O)cc3)c3cc(C)ccc3n2)cc(OC)c1OC`, for which the half-maximal inhibitory concentration (IC50) in the assay with HL-1 (setting [1]) was determined as 4.22 µM; with HL-1 (setting [2]), 2.65 µM; with HL-1 (setting [3]), 2.65 µM; in the assay with HL-1 (setting [4]) it was 5.75 µM; with HL-1 (setting [5]), 5.85 µM; in the assay with HL-1 (setting [6]), 3.93 µM. In addition, the IC50 came to 3.02 µM with HL-1 (setting [7]); 3.88 µM in the assay with HL-1 (setting [8]); 3.17 µM with HL-1 (setting [9]); 5.63 µM in the assay with HL-1 (setting [10]); 5.83 µM with H9c2 (setting [1]); 6.75 µM in the assay on H9c2 (setting [2]). The IC50 with H9c2 (setting [3]) amounted to 8.1 µM; in the assay on H9c2 (setting [4]) it was 3.5 µM; in the assay with H9c2 (setting [5]), 4.96 µM; in the assay with H9c2 (setting [6]), 1.67 µM; in the assay with H9c2 (setting [7]) it was 2.04 µM; in the assay with H9c2 (setting [8]) it was 2.05 µM. Moreover, the IC50 came to 1.09 µM with H9c2 (setting [9]) and 1.49 µM in the assay with H9c2 (setting [10]).

On to `COc1ccc2c(c1OC)C(=O)N1c3ccccc3C(=O)N(Cc3ccccc3Cl)C21` (centres undefined), for which the IC50 with HL-1 (setting [1]) was 2.3 µM; in the assay on HL-1 (setting [2]), 1.05 µM; in the assay with HL-1 (setting [3]) it was 1.56 µM; in the assay with HL-1 (setting [4]), 2.66 µM; in the assay with HL-1 (setting [5]), 3.94 µM; in the assay with HL-1 (setting [6]), above 79 µM. Besides, the 50% inhibitory concentration (IC50) is above 79 µM with HL-1 (setting [7]); above 79 µM with HL-1 (setting [8]); above 79 µM in the assay on HL-1 (setting [9]); above 79 µM with HL-1 (setting [10]); 15.8 µM with H9c2 (setting [1]); 17 µM in the assay on H9c2 (setting [2]). In addition, the half-inhibitory concentration (IC50) with H9c2 (setting [3]) was 20.1 µM; with H9c2 (setting [4]), 12 µM; in the assay on H9c2 (setting [5]), 14.2 µM; in the assay on H9c2 (setting [7]), 0.558 µM; with H9c2 (setting [8]), 0.745 µM; in the assay on H9c2 (setting [9]) it was above 79 µM. In the assay with H9c2 (setting [10]), this molecule gave an IC50 above 79 µM.

Regarding `COc1cc(-c2cc(C(=O)Nc3cccc(C(=O)N(C)C)c3)c3ccccc3n2)cc(OC)c1OC`, the IC50 in the assay on HL-1 (setting [1]) came out at 16.5 µM; in the assay with HL-1 (setting [2]), 6.9 µM; with HL-1 (setting [3]), 7.56 µM; in the assay on HL-1 (setting [4]), 24.5 µM; with HL-1 (setting [5]), 26.9 µM; in the assay on HL-1 (setting [6]) it was 9.38 µM. Further, the IC50 is 7.37 µM with HL-1 (setting [7]); 12.8 µM in the assay on HL-1 (setting [8]); 7.61 µM with HL-1 (setting [9]); 9.78 µM in the assay with HL-1 (setting [10]); above 79 µM with H9c2 (setting [1]); above 79 µM in the assay with H9c2 (setting [2]). The half-maximal inhibitory concentration (IC50) in the assay on H9c2 (setting [3]) is above 79 µM; with H9c2 (setting [4]) it was above 79 µM; with H9c2 (setting [5]), above 79 µM; in the assay with H9c2 (setting [7]), above 79 µM; with H9c2 (setting [8]) it was 3.17 µM; in the assay on H9c2 (setting [9]) it was 3.3 µM. The molecule also registered an IC50 in the assay on H9c2 (setting [10]) of 3.78 µM.

`CCOC(=O)c1ccc(NC(=O)c2cc(-c3cc(OC)c(OC)c(OC)c3)nc3ccccc23)cc1`: the IC50 with HL-1 (setting [1]), in the assay on HL-1 (setting [2]), in the assay on HL-1 (setting [3]), with HL-1 (setting [4]), with HL-1 (setting [5]) and with HL-1 (setting [6]) was above 79 µM in each case. In addition, the 50% inhibitory concentration (IC50) in the assay on HL-1 (setting [7]), in the assay on HL-1 (setting [8]), with HL-1 (setting [9]), in the assay with HL-1 (setting [10]), in the assay with H9c2 (setting [1]) and with H9c2 (setting [2]) was above 79 µM in each case. In addition, the half-maximal inhibitory concentration (IC50) is above 79 µM in the assay with H9c2 (setting [3]); above 79 µM with H9c2 (setting [4]); above 79 µM in the assay with H9c2 (setting [5]); above 79 µM in the assay with H9c2 (setting [7]); 21.5 µM in the assay on H9c2 (setting [8]); above 79 µM in the assay on H9c2 (setting [9]). In addition, the concentration for half-maximal inhibition (IC50) in the assay on H9c2 (setting [10]) was above 79 µM.

In the case of `CCOC(=O)c1cccc(NC(=O)CNC(=O)c2cc(-c3cc(OC)c(OC)c(OC)c3)nc3ccc(Br)cc23)c1`, the half-inhibitory concentration (IC50) is 1.87 µM with HL-1 (setting [1]); 1.25 µM with HL-1 (setting [2]); 1.42 µM in the assay on HL-1 (setting [3]); 1.96 µM with HL-1 (setting [4]); 2.86 µM in the assay with HL-1 (setting [5]); 2.04 µM in the assay with HL-1 (setting [6]). Further, the 50% inhibitory concentration (IC50) in the assay with HL-1 (setting [7]) came to 2.32 µM; in the assay on HL-1 (setting [8]), 2.54 µM; with HL-1 (setting [9]), 1.26 µM; in the assay on HL-1 (setting [10]), 2.05 µM; in the assay with H9c2 (setting [1]) it was 4.52 µM; in the assay on H9c2 (setting [2]), 4.66 µM. Moreover, the half-inhibitory concentration (IC50) in the assay on H9c2 (setting [3]) is 6.47 µM; with H9c2 (setting [4]), 3.26 µM; in the assay on H9c2 (setting [5]), 3.71 µM; in the assay with H9c2 (setting [6]), 1.34 µM; in the assay with H9c2 (setting [7]), 1.44 µM; in the assay with H9c2 (setting [8]) it was 1.74 µM. Further, the IC50 in the assay on H9c2 (setting [9]) came to 0.953 µM; in the assay with H9c2 (setting [10]), 1.24 µM.

Take `CCOC(=O)c1ccccc1NC(=O)c1cc(-c2cc(OC)c(OC)c(OC)c2)nc2ccccc12`: the half-maximal inhibitory concentration (IC50) with HL-1 (setting [2]) is 2.72 µM; with HL-1 (setting [3]), 3 µM; in the assay on HL-1 (setting [4]), above 79 µM; with HL-1 (setting [5]), above 79 µM; in the assay with HL-1 (setting [7]), above 79 µM; with HL-1 (setting [8]), above 79 µM. Moreover, the IC50 in the assay on HL-1 (setting [9]) was above 79 µM; with HL-1 (setting [10]) it was 6.51 µM; with H9c2 (setting [1]), above 79 µM; in the assay with H9c2 (setting [2]), above 79 µM; in the assay on H9c2 (setting [3]) it was above 79 µM; in the assay on H9c2 (setting [4]), above 79 µM. In addition, the 50% inhibitory concentration (IC50) in the assay on H9c2 (setting [5]) is above 79 µM; in the assay with H9c2 (setting [7]), 4.3 µM; in the assay with H9c2 (setting [8]), 4.52 µM; with H9c2 (setting [9]), above 79 µM; in the assay on H9c2 (setting [10]) it was above 79 µM.

With `COc1cc(-c2cc(C(=O)Nc3cccc(C(C)=O)c3)c3cc(Br)ccc3n2)cc(OC)c1OC`, the IC50 with HL-1 (setting [1]), with HL-1 (setting [2]), in the assay on HL-1 (setting [3]), in the assay on HL-1 (setting [4]), in the assay with HL-1 (setting [5]) and in the assay with HL-1 (setting [7]) was above 79 µM each time. The IC50 in the assay on HL-1 (setting [8]) is 9.89 µM; in the assay with HL-1 (setting [9]) it was 2.56 µM; in the assay with HL-1 (setting [10]) it was 2.83 µM; in the assay with H9c2 (setting [1]), above 79 µM; in the assay with H9c2 (setting [2]), above 79 µM; in the assay on H9c2 (setting [3]) it was above 79 µM. The half-maximal inhibitory concentration (IC50) with H9c2 (setting [4]) is above 79 µM; in the assay with H9c2 (setting [5]), above 79 µM; with H9c2 (setting [7]), above 79 µM; with H9c2 (setting [8]), 10.4 µM; in the assay with H9c2 (setting [9]), above 79 µM; in the assay with H9c2 (setting [10]), above 79 µM.

For the origin of these results see PubChem BioAssay AID651642 (Sanford-Burnham Center for Chemical Genomics, 2012).
